Data from patent US20250263370A1 (Tay Therapeutics Limited, priority 2022, published 2025).
Values joined by “and” are separate entries in the source; they are usually repeats but may differ in a detail not shown here. Equal values may be shown once.

Test system: collagen-induced arthritis
Assay: Collagen-induced arthritis (CIA) model in rats: body weight, paw volume, clinical scores, clinical observations; on Average detailed clinical score, left hind limb: key of the grades not given here; on Average detailed clinical score, right hind limb: key of the grades not given here; on Detailed Clinical Scores, left forelimb: key of the grades not given here; on Detailed Clinical Scores, left hind limb: key of the grades not given here; on Detailed Clinical Scores, right forelimb: key of the grades not given here; on Detailed Clinical Scores, right hind limb: key of the grades not given here; on Detailed Clinical Scores, score: key of the grades not given here; on Detailed Clinical Scores: left forelimb: key of the grades not given here; on Detailed Clinical Scores: left hind limb: key of the grades not given here; on Detailed Clinical Scores: right forelimb: key of the grades not given here; on Detailed Clinical Scores: right hind limb: key of the grades not given here; on Detailed Clinical Scores: score: key of the grades not given here; on Mean overall clinical score ± SD: key of the grades not given here; on overall clinical score: key of the grades not given here
Settings: for Average detailed clinical score, right hind limb / Average detailed clinical score, score / Mean overall clinical score ± SD / Overall clinical score / Average detailed clinical score, left forelimb / Average detailed clinical score, left hind limb / Average detailed clinical score, right forelimb / Detailed Clinical Scores, left forelimb / Detailed Clinical Scores, left hind limb / Detailed Clinical Scores, right forelimb / Detailed Clinical Scores, right hind limb / Detailed Clinical Scores, score / Detailed Clinical Scores: left forelimb / Detailed Clinical Scores: left hind limb / Detailed Clinical Scores: right forelimb / Detailed Clinical Scores: right hind limb / Detailed Clinical Scores: score: CIA rats; for Overall clinical score: individual animals #1-8; for Mean animal paw volume ± SD: group mean; for Detailed Clinical Scores, left forelimb / Detailed Clinical Scores, left hind limb / Detailed Clinical Scores, right forelimb / Detailed Clinical Scores, right hind limb / Detailed Clinical Scores, score / Detailed Clinical Scores: left forelimb / Detailed Clinical Scores: left hind limb / Detailed Clinical Scores: right forelimb / Detailed Clinical Scores: right hind limb / Detailed Clinical Scores: score: individual animals ID 1-8; for Animal paw volume percent change: individual animals

Compound: CNC(=O)c1[nH]c(C(=O)NC2CCC2)cc1O[C@@H](C)c1ccccc1 (stereo in doubt) [Example 101, N^5-cyclobutyl-N^2-methyl-3-(1-phenylethoxy)-1H-pyrrole-2,5-dicarboxamide]
- Average detailed clinical score, right hind limb (Day 12, 10 mg/kg): 0.25
- Average detailed clinical score, score (Day 12, 10 mg/kg): 0.50
- Mean overall clinical score ± SD (Day 12, 10 mg/kg): 1 ± 1
- Overall clinical score (Day 12, 10 mg/kg): 1 and 0 and 2
- Average detailed clinical score, left forelimb (Day 12, 30 mg/kg): 0.00
- Average detailed clinical score, left hind limb (Day 12, 30 mg/kg): 0.00
- Average detailed clinical score, right forelimb (Day 12, 30 mg/kg): 0.00
- Average detailed clinical score, right hind limb (Day 12, 30 mg/kg): 0.13
- Average detailed clinical score, score (Day 12, 30 mg/kg): 0.13
- Mean overall clinical score ± SD (Day 12, 30 mg/kg): 0 ± 0
- Mean animal paw volume ± SD (Day 13, L paw, 3 mg/kg): 1.53 mL
- Mean animal paw volume ± SD (Day 13, L paw, 10 mg/kg): 1.52 mL
- Mean animal paw volume ± SD (Day 13, L paw, 30 mg/kg): 1.35 mL
- Mean animal paw volume ± SD (Day 13, R paw, 3 mg/kg): 1.46 mL
- Mean animal paw volume ± SD (Day 13, R paw, 10 mg/kg): 1.45 mL
- Mean animal paw volume ± SD (Day 13, R paw, 30 mg/kg): 1.37 mL
- Detailed Clinical Scores, left forelimb (Day 13, 3 mg/kg): 0
- Detailed Clinical Scores, left hind limb (Day 13, 3 mg/kg): 1 (4×) and 0 (3×) and 2
- Detailed Clinical Scores, right forelimb (Day 13, 3 mg/kg): 0 (6×) and 1 (2×)
- Detailed Clinical Scores, right hind limb (Day 13, 3 mg/kg): 0 (7×) and 1
- Detailed Clinical Scores, score (Day 13, 3 mg/kg): 1 (2×) and 2 (2×) and 0 (3×) and 3
- Detailed Clinical Scores, left forelimb (Day 13, 10 mg/kg): 0
- Detailed Clinical Scores, left hind limb (Day 13, 10 mg/kg): 2 (3×) and 0 (4×) and 1
- Detailed Clinical Scores, right forelimb (Day 13, 10 mg/kg): 0
- Detailed Clinical Scores, right hind limb (Day 13, 10 mg/kg): 1 and 0 (6×) and 2
- Detailed Clinical Scores, score (Day 13, 10 mg/kg): 3 and 0 (4×) and 4 and 2 and 1
- Detailed Clinical Scores, left forelimb (Day 13, 30 mg/kg): 0
- Detailed Clinical Scores, left hind limb (Day 13, 30 mg/kg): 0
- Detailed Clinical Scores, right forelimb (Day 13, 30 mg/kg): 0
- Detailed Clinical Scores, right hind limb (Day 13, 30 mg/kg): 1 and 0 (7×)
- Detailed Clinical Scores, score (Day 13, 30 mg/kg): 1 and 0 (7×)
- Average detailed clinical score, left forelimb (Day 13, 3 mg/kg): 0.00
- Average detailed clinical score, left hind limb (Day 13, 3 mg/kg): 0.75
- Average detailed clinical score, right forelimb (Day 13, 3 mg/kg): 0.25
- Average detailed clinical score, right hind limb (Day 13, 3 mg/kg): 0.13
- Average detailed clinical score, score (Day 13, 3 mg/kg): 1.13
- Mean overall clinical score ± SD (Day 13, 3 mg/kg): 1 ± 1
- Overall clinical score (Day 13, 3 mg/kg): 1 (2×) and 2 (2×) and 0 (3×) and 3
- Average detailed clinical score, left forelimb (Day 13, 10 mg/kg): 0.00
- Average detailed clinical score, left hind limb (Day 13, 10 mg/kg): 0.88
- Average detailed clinical score, right forelimb (Day 13, 10 mg/kg): 0.00
- Average detailed clinical score, right hind limb (Day 13, 10 mg/kg): 0.38
- Average detailed clinical score, score (Day 13, 10 mg/kg): 1.25
- Mean overall clinical score ± SD (Day 13, 10 mg/kg): 1 ± 2
- Overall clinical score (Day 13, 10 mg/kg): 3 and 0 and 4
- Average detailed clinical score, left forelimb (Day 13, 30 mg/kg): 0.00
- Average detailed clinical score, left hind limb (Day 13, 30 mg/kg): 0.00
- Average detailed clinical score, right forelimb (Day 13, 30 mg/kg): 0.00
- Average detailed clinical score, right hind limb (Day 13, 30 mg/kg): 0.13
- Average detailed clinical score, score (Day 13, 30 mg/kg): 0.13
- Mean overall clinical score ± SD (Day 13, 30 mg/kg): 0 ± 0
- Mean animal paw volume ± SD (Day 14, L paw, 3 mg/kg): 1.69 mL
- Mean animal paw volume ± SD (Day 14, L paw, 10 mg/kg): 1.70 mL
- Mean animal paw volume ± SD (Day 14, L paw, 30 mg/kg): 1.35 mL
- Mean animal paw volume ± SD (Day 14, R paw, 3 mg/kg): 1.59 mL
- Mean animal paw volume ± SD (Day 14, R paw, 10 mg/kg): 1.59 mL
- Mean animal paw volume ± SD (Day 14, R paw, 30 mg/kg): 1.37 mL
- Detailed Clinical Scores, left forelimb (Day 14, 3 mg/kg): 0
- Detailed Clinical Scores, left hind limb (Day 14, 3 mg/kg): 1 (7×) and 3
- Detailed Clinical Scores, right forelimb (Day 14, 3 mg/kg): 0 (6×) and 1 (2×)
- Detailed Clinical Scores, right hind limb (Day 14, 3 mg/kg): 1 (2×) and 0 (4×) and 2 and 3
- Detailed Clinical Scores, score (Day 14, 3 mg/kg): 2 (3×) and 4 and 1 (3×) and 6
- Detailed Clinical Scores, left forelimb (Day 14, 10 mg/kg): 0
- Detailed Clinical Scores, left hind limb (Day 14, 10 mg/kg): 3 (3×) and 4 and 0 (4×)
- Detailed Clinical Scores, right forelimb (Day 14, 10 mg/kg): 0
- Detailed Clinical Scores, right hind limb (Day 14, 10 mg/kg): 1 (3×) and 3 and 0 (4×)
- Detailed Clinical Scores, score (Day 14, 10 mg/kg): 4 (2×) and 6 and 5 and 0 (4×)
- Detailed Clinical Scores, left forelimb (Day 14, 30 mg/kg): 0
- Detailed Clinical Scores, left hind limb (Day 14, 30 mg/kg): 0
- Detailed Clinical Scores, right forelimb (Day 14, 30 mg/kg): 0
- Detailed Clinical Scores, right hind limb (Day 14, 30 mg/kg): 1 and 0 (7×)
- Detailed Clinical Scores, score (Day 14, 30 mg/kg): 1 and 0 (7×)
- Average detailed clinical score, left forelimb (Day 14, 3 mg/kg): 0.00
- Average detailed clinical score, left hind limb (Day 14, 3 mg/kg): 1.25
- Average detailed clinical score, right forelimb (Day 14, 3 mg/kg): 0.25
- Average detailed clinical score, right hind limb (Day 14, 3 mg/kg): 0.88
- Average detailed clinical score, score (Day 14, 3 mg/kg): 2.38
- Mean overall clinical score ± SD (Day 14, 3 mg/kg): 2 ± 2
- Overall clinical score (Day 14, 3 mg/kg): 2 (3×) and 4 and 1 (3×) and 6
- Average detailed clinical score, left forelimb (Day 14, 10 mg/kg): 0.00
- Average detailed clinical score, left hind limb (Day 14, 10 mg/kg): 1.63
- Average detailed clinical score, right forelimb (Day 14, 10 mg/kg): 0.00
- Average detailed clinical score, right hind limb (Day 14, 10 mg/kg): 0.75
- Average detailed clinical score, score (Day 14, 10 mg/kg): 2.38
- Mean overall clinical score ± SD (Day 14, 10 mg/kg): 2 ± 3
- Overall clinical score (Day 14, 10 mg/kg): 4 (2×) and 6
- Average detailed clinical score, left forelimb (Day 14, 30 mg/kg): 0.00
- Average detailed clinical score, left hind limb (Day 14, 30 mg/kg): 0.00
- Average detailed clinical score, right forelimb (Day 14, 30 mg/kg): 0.00
- Average detailed clinical score, right hind limb (Day 14, 30 mg/kg): 0.13
- Average detailed clinical score, score (Day 14, 30 mg/kg): 0.13
- Mean overall clinical score ± SD (Day 14, 30 mg/kg): 0 ± 0
- Mean animal paw volume ± SD (Day 15, L paw, 3 mg/kg): 1.86 mL
- Animal paw volume percent change (Day 15, L paw, 3 mg/kg): 31.80% and 28.90% and 44.87% and 22.68% and 86.59% and 50.55% and 30.34%
- Mean animal paw volume ± SD (Day 15, L paw, 10 mg/kg): 1.83 mL
- Animal paw volume percent change (Day 15, L paw, 10 mg/kg): 53.43% and 36.90% and 80.93% and 93.39% and 7.66% and 22.69%
- Mean animal paw volume ± SD (Day 15, L paw, 30 mg/kg): 1.45 mL
- Mean animal paw volume ± SD (Day 15, R paw, 3 mg/kg): 1.92 mL
- Animal paw volume percent change (Day 15, R paw, 3 mg/kg): 25.86% and 20.97% and 74.62% and 27.24% and 84.29% and 50.19% and 48.69%
- Mean animal paw volume ± SD (Day 15, R paw, 10 mg/kg): 1.75 mL
- Animal paw volume percent change (Day 15, R paw, 10 mg/kg): 37.01% and 45.42% and 94.98% and 47.10% and 6.18% and 10.73%
- Mean animal paw volume ± SD (Day 15, R paw, 30 mg/kg): 1.48 mL
- Detailed Clinical Scores: left forelimb (Day 15, 3 mg/kg): 0
- Detailed Clinical Scores: left hind limb (Day 15, 3 mg/kg): 1 (3×) and 2 (3×) and 4 and 3
- Detailed Clinical Scores: right forelimb (Day 15, 3 mg/kg): 0 (6×) and 1 (2×)
- Detailed Clinical Scores: right hind limb (Day 15, 3 mg/kg): 1 (3×) and 3 (2×) and 2 (2×) and 4
- Detailed Clinical Scores: score (Day 15, 3 mg/kg): 2 and 3 (3×) and 6 (2×) and 8 and 4
- Detailed Clinical Scores: left forelimb (Day 15, 10 mg/kg): 0
- Detailed Clinical Scores: left hind limb (Day 15, 10 mg/kg): 3 (2×) and 2 and 4 and 0 (2×) and 1 (2×)
- Detailed Clinical Scores: right forelimb (Day 15, 10 mg/kg): 0
- Detailed Clinical Scores: right hind limb (Day 15, 10 mg/kg): 2 (3×) and 4 and 0 (2×) and 1 (2×)
- Detailed Clinical Scores: score (Day 15, 10 mg/kg): 5 and 4 and 7 and 6 and 0 and 1 (2×) and 2
- Detailed Clinical Scores: left forelimb (Day 15, 30 mg/kg): 0
- Detailed Clinical Scores: left hind limb (Day 15, 30 mg/kg): 0 (6×) and 2 and 1
- Detailed Clinical Scores: right forelimb (Day 15, 30 mg/kg): 0
- Detailed Clinical Scores: right hind limb (Day 15, 30 mg/kg): 1 (2×) and 0 (5×) and 2
- Detailed Clinical Scores: score (Day 15, 30 mg/kg): 1 and 2 (3×) and 0 (4×)
- Average detailed clinical score, left forelimb (Day 15, 3 mg/kg): 0.00
